These are literature values, as cited in patent US20080181955A1, “Natural dietary supplement and method for enhancing human libido” (priority 2007, published 2008).

For data set [1] the following is noted: oral.
Data set [2] deals with human endothelial NO synthase. To be noted: polyphenolic constituents of red wine.
The test system of data set [3] is nitric oxide (NO). To be noted: resveratrol alone.
Data set [4] addresses PDE-5 (Homo sapiens, UniProt O76074). To be noted: resveratrol alone.

Molecules are shown by their SMILES.

On to `CCCc1nn(C)c2c(=O)[nH]c(-c3cc(S(=O)(=O)N4CCN(C)CC4)ccc3OCC)nc12` [Sildenafil, sildenafil], for which, in data set [1], the half-life entry was “about 4 hours”.

In the case of `CN1CC(=O)N2[C@H](c3ccc4c(c3)OCO4)c3[nH]c4ccccc4c3C[C@@H]2C1=O` [Tadalafil, tadalafil], the half-life entry in data set [1] is listed as “about 17.5 hours”.

As for `O=C(O)c1ccccc1` [benzoic acid], the eNOS expression result in data set [2] is “enhanced eNOS expression moderately”.

For `O=C(O)/C=C/c1ccc(O)c(O)c1` [caffeic acid], the eNOS expression result in data set [2] is on record as “enhanced eNOS expression moderately”.

With `O=C(O)/C=C/c1ccc(O)cc1` [p-coumaric acid], in data set [2], the eNOS expression entry is “enhanced eNOS expression moderately”.

Turning to `Oc1ccc(C=Cc2cc(O)cc(O)c2)cc1` [resveratrol], the “release of NO” value in data set [3] is “releases NO”. In addition, the “effect on PDE-5” value in data set [4] is “no recognizable effect on PDE-5”.

With `Oc1ccc(/C=C/c2cc(O)cc(O)c2)cc1` [trans-resveratrol], the eNOS expression entry in data set [2] is listed as “most efficacious stimulator of eNOS expression”.

`COc1cc(C(=O)O)ccc1O` [vanilla acid]: in data set [2], the eNOS expression result is on record as “enhanced eNOS expression moderately”.
